Type in all cases: cell-based
The nature of data set [1]: Cytotoxicity counter screens to the reporter assays. The settings on record: counter screens to M2H, PSA-Luc, AR-V7 reporters, read-out: IC50 in cytotoxicity counter screen. (Counterscreens check selectivity or assay interference.)
The subject of data set [2] is AR-V7 directed transcriptional activation in PC3-AR-V7-EGFP cells. Description: AR-V7 driven PSA6.1-Luc and UBE2C-Luc reporter assays, results stated jointly. The note with it: both reporters; read-out: IC50s, both PSA6-6.1-Luc and UBE2C-Luc reporters in PC3-AR-V7-EGFP cells (potency range in words). The protocol: PSA6.1 Promoter Driven Luciferase Reporter Assay in PC3-AR-V7-GFP Cells: PC3-AR-V7-GFP cells were bulk transfected with a mixture of FuGENE® HD transfection agent and the PSA-6.1-Luc reporter plasmid (20 ng/well) combined at a 3:1 (μL:μg) ratio in Opti-MEM™ medium (Gibco, Gaithersburg, MD) that had been incubated for 25 min at RT before being added to PC3-AR-V7-GFP cells that were suspended in RPMI 1640 (Gibco) media containing 1% L-glutamine (Invitrogen), and 10% fetal bovine serum (Gemini Bio-products). Bulk transfected PC3-AR-V7-GFP cells were seeded into white opaque 384-well assay plates (Greiner Bio-one, #781080) at 3,000 cells per well in a volume of 40 μL and incubated at 5% CO2, 37° C., and 95% humidity for 24 h. After 24 h, 5 μL of compounds were transferred to assay wells and the plates were returned to the incubator for an additional 24 h before 25 μL of BrightGlo® luciferase reagent (Promega) was added to the wells and the RLU's were captured on a SpectraMax® M5e plate reader (Molecular Devices LLC) as described previously (Fancher et al., Assay Drug Dev Technol. 2019, 17:364-386).
UBE2C Promoter Driven Luciferase Reporter Assay in PC3-AR-V7-GFP Cells: The pGL4.28-UBE2C 20bpX3 luciferase reporter plasmid (Xu et al., Cancer Res 2015, 75:3663-71) was provided by Dr. Yan Dong from Tulane University. […]
For orientation: A reporter such as luciferase makes a cellular process visible.

The subject of the next data set is DU-145 cells. As to the kind of experiment: Prostate cancer cell line growth inhibition assay, DU-145. The note with it: read-out: AR negative DU-145 GI50. The procedure:
Prostate Cancer Cell Line Growth Inhibition Assays: The PC-3, DU-145, LNCaP, C4-2, and 22Rv1 PC cell line growth inhibition assays have been described previously (Fancher et al., Assay Drug Dev Technol. 2016, 14:453-477; Fancher et al., Assay Drug Dev Technol. 2019, 17:364-386). On day 1, each PC cell line was harvested, counted, and seeded into two 384-well assay plates, a time zero (T0) and a time 72 h (T72) plate. […] On day 2, 25 μL of the CellTiter-Glo® (CTG) (Promega Corporation, Madison, WI) detection reagent was dispensed into the wells of the TO assay plate using a Matrix electronic multichannel pipette, and the RLUs were captured on the SpectraMax® M5e (Molecular Devices LLC, Sunnyvale, CA) microtiter plate reader. […] On day 5, 25 μL of the CTG detection reagent was dispensed into the wells of the T72 assay plate using a Matrix electronic multichannel pipette, and the RLU's were captured on the SpectraMax® M5e microtiter plate reader platform.
For the 96-well AR-LBD H^3-DHT radioligand binding assay, eight minimum and maximum plate control wells were utilized to normalize the data. […] To normalize the 72 h compound exposure PC growth inhibition data, the signals from the compound treated wells were processed and expressed as % of the T72 DMSO plate controls. […]

Read-outs that look alike come from different tables or passages of the source.

Take `Cc1nc(N)cc(N2CCOc3c(O)cc(-c4ccccc4C)cc3C2)n1` [Compound S1-2]: the IC50 in data set [1] is 45.6 µM; in data set [2], 10 to 100 µM. In addition, the IC50 at 24 h in data set [1] (human, PC3-AR-V7-EGFP cells) was found to be 45.9 µM.

As to `Cc1ccccc1-c1cc(O)c2c(c1)CN(c1nc(C(N)=O)cs1)CCO2` [Compound S1-1], in the data set with DU-145 cells (72 h, listed as 1), the GI50 turned out to be 60.5 µM. In addition, the IC50 in data set [2] was in the range of 10 to 100 µM.

Consider `Cc1c(-c2ccccc2F)[nH]c2ccc(CNC(=O)CCc3cn[nH]c3)cc12` [Compound S3-11], for which, in the data set with DU-145 cells (Homo sapiens, DU-145, 72 h), the GI50 was 15.9 µM.

A word on the GI50: it is the concentration that inhibits growth by half.

For the origin of these results see US20260083751A1, “ALLOSTERIC MODULATORS OF ANDROGEN RECEPTOR COACTIVATOR RECRUITMENT FOR CRPC THERAPY” (University of Pittsburgh – Of the Commonwealth System of …, priority 2022, published 2026).
